Reference: publication PMC10176470, “Engaging a Non-catalytic Cysteine Residue Drives Potent and Selective Inhibition of Caspase-6” (Journal of the American Chemical Society, 2023)

How the values were obtained:
Format in all cases: cell-based
[1] = target: proteins of HEK293T cells transiently overexpressing caspase-6 (Homo sapiens, UniProt P63104); conditions: exp_ref Probe; protein YWHAZ (P63104); analysis C6
[2] = target: T1, proteins of HEK293T cells transiently overexpressing caspase-6 (Homo sapiens, UniProt Q99832); conditions: protein CCT7 (Q99832)
T1 sequence (Q99832 1-543): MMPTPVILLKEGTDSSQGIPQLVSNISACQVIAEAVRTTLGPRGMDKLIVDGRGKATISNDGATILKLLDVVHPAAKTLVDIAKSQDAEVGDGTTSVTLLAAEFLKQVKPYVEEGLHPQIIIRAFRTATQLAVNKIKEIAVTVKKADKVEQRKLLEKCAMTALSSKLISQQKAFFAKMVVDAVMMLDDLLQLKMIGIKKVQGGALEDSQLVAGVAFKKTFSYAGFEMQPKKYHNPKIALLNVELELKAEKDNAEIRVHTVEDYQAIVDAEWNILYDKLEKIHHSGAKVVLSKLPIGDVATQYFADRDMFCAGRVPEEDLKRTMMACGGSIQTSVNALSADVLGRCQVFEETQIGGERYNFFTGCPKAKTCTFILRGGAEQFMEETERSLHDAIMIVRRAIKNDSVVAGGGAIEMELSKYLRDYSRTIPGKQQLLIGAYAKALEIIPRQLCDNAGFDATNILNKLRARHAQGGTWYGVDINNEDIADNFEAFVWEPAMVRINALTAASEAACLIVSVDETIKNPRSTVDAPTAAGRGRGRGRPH

[3] = target: proteins of HEK293T cells transiently overexpressing caspase-6 (Homo sapiens, UniProt P40939); conditions: exp_ref Probe; protein HADHA (P40939); analysis C6
[4] = target: proteins of HEK293T cells transiently overexpressing caspase-6 (Homo sapiens, UniProt P33991); conditions: exp_ref Probe; protein MCM4 (P33991); analysis C6
[5] = target: proteins of HEK293T cells transiently overexpressing caspase-6 (Homo sapiens, UniProt Q92841); conditions: exp_ref Probe; protein DDX17 (Q92841); analysis C6
[6] = target: proteins of HEK293T cells transiently overexpressing caspase-6 (Homo sapiens, UniProt Q16881); conditions: exp_ref Probe; protein TXNRD1 (Q16881); analysis C6
proteins of HEK293T cells transiently overexpressing caspase-6 (Homo sapiens, UniProt Q16881), sequence (Q16881 whole entry): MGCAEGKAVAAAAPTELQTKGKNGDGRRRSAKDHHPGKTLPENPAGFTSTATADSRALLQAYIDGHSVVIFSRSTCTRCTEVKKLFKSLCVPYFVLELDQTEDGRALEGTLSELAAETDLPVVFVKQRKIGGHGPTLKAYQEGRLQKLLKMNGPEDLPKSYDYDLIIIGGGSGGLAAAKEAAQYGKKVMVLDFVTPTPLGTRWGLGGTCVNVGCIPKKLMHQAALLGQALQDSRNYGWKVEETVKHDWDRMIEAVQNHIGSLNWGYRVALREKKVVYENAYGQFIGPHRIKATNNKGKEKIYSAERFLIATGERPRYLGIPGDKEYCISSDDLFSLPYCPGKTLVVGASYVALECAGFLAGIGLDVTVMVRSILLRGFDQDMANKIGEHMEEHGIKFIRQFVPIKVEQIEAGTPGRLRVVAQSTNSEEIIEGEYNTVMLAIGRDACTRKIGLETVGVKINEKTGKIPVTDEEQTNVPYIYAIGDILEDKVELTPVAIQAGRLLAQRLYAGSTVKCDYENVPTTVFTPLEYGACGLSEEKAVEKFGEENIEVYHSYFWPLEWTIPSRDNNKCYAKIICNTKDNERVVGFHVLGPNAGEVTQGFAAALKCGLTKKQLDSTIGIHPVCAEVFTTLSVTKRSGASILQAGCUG

[7] = target: T2, proteins of HEK293T cells transiently overexpressing caspase-6 (Homo sapiens, UniProt Q13162)
T2 sequence (Q13162 38-271): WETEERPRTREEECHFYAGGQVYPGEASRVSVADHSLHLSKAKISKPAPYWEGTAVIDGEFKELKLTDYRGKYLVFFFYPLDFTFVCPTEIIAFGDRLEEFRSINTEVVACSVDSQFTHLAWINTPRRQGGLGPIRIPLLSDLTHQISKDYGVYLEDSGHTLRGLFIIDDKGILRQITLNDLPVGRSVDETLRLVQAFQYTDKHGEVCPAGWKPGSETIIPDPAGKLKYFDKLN

[8] = target: proteins of HEK293T cells transiently overexpressing caspase-6 (Homo sapiens, UniProt P14618); conditions: protein PKM (P14618)
proteins of HEK293T cells transiently overexpressing caspase-6 (Homo sapiens, UniProt P14618), sequence (P14618 whole entry): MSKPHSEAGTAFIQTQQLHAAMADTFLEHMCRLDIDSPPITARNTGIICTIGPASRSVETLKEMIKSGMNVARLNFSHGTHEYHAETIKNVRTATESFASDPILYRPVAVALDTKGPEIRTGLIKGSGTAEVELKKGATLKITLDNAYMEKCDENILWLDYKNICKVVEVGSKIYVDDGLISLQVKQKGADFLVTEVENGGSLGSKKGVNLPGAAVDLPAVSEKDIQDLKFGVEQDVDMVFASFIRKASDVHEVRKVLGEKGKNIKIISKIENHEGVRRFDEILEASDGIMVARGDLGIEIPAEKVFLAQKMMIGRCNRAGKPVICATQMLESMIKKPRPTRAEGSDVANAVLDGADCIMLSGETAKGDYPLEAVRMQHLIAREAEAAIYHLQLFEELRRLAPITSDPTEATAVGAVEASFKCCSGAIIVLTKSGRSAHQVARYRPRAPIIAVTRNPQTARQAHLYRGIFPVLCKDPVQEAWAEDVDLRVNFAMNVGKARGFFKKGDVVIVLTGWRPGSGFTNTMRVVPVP

[9] = target: proteins of HEK293T cells transiently overexpressing caspase-6 (Homo sapiens, UniProt Q9P258); conditions: exp_ref Probe; protein RCC2 (Q9P258); analysis C6
[10] = target: proteins of HEK293T cells transiently overexpressing caspase-6 (Homo sapiens, UniProt Q14980); conditions: exp_ref Probe; protein NUMA1 (Q14980); analysis C6
proteins of HEK293T cells transiently overexpressing caspase-6 (Homo sapiens, UniProt Q14980), sequence (Q14980 whole entry): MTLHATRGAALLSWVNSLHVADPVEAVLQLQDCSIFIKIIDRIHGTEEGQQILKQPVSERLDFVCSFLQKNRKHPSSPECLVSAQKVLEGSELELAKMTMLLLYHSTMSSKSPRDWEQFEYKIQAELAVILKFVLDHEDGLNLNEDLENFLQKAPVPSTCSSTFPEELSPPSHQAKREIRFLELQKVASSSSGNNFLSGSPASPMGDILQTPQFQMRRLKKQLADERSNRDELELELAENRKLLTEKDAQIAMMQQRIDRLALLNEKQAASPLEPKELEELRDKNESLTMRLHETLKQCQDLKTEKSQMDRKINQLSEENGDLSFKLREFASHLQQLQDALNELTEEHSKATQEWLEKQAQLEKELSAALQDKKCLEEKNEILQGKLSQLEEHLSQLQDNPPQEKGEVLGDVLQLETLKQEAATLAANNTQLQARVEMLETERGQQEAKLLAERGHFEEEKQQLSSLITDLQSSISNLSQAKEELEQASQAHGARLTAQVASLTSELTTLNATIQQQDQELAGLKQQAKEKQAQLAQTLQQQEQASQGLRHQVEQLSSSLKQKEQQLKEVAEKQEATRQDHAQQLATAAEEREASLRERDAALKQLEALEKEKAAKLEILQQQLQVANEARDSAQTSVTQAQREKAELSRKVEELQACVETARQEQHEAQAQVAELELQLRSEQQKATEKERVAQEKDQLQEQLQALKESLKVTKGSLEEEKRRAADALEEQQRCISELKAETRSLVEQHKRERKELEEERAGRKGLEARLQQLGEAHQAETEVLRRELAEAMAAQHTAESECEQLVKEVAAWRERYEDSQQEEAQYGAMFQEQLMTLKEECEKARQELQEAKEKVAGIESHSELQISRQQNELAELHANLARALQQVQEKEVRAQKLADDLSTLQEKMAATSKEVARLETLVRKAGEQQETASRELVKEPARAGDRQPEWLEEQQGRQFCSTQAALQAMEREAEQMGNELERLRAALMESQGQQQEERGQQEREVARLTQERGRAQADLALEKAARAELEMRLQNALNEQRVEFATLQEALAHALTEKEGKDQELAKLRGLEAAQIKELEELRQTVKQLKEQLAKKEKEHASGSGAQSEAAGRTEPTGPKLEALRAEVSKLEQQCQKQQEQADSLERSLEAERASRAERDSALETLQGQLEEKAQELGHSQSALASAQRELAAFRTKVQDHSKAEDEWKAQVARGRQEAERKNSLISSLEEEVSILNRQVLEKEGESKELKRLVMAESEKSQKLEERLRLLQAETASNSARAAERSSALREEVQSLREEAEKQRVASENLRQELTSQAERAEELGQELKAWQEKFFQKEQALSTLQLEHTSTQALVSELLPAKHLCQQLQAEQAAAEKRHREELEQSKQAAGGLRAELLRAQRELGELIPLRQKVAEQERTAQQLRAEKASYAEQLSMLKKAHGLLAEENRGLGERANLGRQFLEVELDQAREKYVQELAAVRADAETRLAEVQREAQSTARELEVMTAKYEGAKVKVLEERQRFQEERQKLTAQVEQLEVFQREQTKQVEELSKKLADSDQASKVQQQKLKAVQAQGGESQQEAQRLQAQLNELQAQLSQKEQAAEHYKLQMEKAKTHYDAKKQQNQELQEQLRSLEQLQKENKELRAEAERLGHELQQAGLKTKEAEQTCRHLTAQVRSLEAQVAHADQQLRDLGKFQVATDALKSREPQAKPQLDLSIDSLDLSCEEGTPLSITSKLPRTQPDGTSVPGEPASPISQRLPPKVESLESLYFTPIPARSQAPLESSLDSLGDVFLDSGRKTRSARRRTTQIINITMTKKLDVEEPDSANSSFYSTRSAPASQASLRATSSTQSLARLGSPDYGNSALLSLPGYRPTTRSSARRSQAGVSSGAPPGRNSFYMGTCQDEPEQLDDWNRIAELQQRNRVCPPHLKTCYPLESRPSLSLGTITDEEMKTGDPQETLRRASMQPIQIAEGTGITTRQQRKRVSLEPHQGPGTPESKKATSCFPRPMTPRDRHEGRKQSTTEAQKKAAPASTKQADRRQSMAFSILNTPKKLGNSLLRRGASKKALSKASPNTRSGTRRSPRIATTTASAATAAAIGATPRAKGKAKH

[11] = target: proteins of HEK293T cells transiently overexpressing caspase-6 (Homo sapiens, UniProt Q9Y230); conditions: protein RUVBL2 (Q9Y230); exp_ref Probe; analysis C6
proteins of HEK293T cells transiently overexpressing caspase-6 (Homo sapiens, UniProt Q9Y230), sequence (Q9Y230 whole entry): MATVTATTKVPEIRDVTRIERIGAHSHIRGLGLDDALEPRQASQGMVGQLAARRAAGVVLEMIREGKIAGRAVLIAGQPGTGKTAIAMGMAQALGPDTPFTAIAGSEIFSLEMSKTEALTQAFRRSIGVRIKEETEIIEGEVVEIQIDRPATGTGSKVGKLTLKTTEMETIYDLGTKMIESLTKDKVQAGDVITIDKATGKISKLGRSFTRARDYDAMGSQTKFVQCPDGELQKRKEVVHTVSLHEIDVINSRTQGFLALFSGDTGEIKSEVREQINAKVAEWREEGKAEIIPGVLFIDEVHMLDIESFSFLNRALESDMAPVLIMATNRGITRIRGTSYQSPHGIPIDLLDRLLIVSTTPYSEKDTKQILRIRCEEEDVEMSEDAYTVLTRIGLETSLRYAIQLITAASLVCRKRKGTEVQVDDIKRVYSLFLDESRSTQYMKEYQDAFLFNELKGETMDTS

[12] = target: proteins of HEK293T cells transiently overexpressing caspase-6 (Homo sapiens, UniProt P24752); conditions: Probe; protein ACAT1 P24752
proteins of HEK293T cells transiently overexpressing caspase-6 (Homo sapiens, UniProt P24752), sequence (P24752 34-427): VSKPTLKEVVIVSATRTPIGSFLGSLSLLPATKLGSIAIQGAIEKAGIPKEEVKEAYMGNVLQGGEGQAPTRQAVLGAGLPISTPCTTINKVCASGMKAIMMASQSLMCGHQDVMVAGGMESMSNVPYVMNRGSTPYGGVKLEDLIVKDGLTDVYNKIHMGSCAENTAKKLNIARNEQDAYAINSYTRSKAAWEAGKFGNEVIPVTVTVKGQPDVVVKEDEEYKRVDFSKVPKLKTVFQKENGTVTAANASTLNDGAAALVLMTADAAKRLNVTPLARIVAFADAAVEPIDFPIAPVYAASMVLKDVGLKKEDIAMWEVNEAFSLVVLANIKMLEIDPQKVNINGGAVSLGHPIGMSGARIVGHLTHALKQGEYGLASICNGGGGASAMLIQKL

[13] = target: proteins of HEK293T cells transiently overexpressing caspase-6 (Homo sapiens, UniProt P14866); conditions: exp_ref Probe; protein HNRNPL (P14866); analysis C6
proteins of HEK293T cells transiently overexpressing caspase-6 (Homo sapiens, UniProt P14866), sequence (P14866 whole entry): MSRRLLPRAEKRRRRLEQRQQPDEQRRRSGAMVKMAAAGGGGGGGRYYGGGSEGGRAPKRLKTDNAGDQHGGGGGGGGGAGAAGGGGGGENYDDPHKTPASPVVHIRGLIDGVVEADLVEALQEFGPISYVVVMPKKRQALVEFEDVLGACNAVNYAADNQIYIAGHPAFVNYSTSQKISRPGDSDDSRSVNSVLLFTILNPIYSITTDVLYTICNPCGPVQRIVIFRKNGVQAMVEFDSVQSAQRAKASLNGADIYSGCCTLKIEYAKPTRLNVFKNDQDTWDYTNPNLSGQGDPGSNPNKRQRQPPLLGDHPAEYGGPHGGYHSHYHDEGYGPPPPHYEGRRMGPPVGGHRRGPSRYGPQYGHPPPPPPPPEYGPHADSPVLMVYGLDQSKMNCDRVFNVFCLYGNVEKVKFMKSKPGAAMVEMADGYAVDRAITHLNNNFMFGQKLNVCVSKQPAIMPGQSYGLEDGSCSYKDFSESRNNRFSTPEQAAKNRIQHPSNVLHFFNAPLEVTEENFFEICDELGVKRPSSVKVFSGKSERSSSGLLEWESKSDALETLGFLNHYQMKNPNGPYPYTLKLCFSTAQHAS

[14] = target: T3, proteins of HEK293T cells transiently overexpressing caspase-6 (Homo sapiens, UniProt P29401)
T3 sequence (P29401 1-623): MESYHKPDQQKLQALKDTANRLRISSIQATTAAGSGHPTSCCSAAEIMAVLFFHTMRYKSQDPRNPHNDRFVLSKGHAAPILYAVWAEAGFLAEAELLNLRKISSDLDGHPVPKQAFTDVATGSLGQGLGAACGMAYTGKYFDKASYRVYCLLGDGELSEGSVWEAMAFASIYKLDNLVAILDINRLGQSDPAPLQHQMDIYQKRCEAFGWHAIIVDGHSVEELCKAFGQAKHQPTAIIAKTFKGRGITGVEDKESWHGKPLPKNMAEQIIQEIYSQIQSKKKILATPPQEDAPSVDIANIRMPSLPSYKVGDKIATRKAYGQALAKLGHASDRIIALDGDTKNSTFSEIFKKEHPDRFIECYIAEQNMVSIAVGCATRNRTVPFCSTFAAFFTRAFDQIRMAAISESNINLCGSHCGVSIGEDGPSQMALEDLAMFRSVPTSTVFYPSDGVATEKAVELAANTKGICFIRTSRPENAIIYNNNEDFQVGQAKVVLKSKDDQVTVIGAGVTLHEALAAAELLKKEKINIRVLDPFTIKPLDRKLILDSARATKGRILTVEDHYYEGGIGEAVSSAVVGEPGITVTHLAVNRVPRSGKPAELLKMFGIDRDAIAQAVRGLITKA

proteins of HEK293T cells transiently overexpressing caspase-6 (Homo sapiens, UniProt P63104), sequence (P63104 whole entry): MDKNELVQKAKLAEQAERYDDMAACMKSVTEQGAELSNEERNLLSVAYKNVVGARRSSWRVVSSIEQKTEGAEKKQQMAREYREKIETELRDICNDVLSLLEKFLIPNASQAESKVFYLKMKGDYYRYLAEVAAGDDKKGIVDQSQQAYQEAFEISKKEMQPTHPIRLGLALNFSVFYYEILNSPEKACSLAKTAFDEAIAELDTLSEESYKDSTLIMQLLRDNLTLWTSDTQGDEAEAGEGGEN

Q: What does the source list for C#CCOc1ccc([C@@H]2C[C@@H](C(=O)Nc3ccc(OC(F)(F)F)cc3)CN(S(=O)(=O)C=C)C2)cc1 (relative stereo) [13-t]?
A: enrich.exp.med [1]: 0.8069; enrich.exp.med ([2]; exp_ref Probe, analysis C6): 0.5798; enrich.exp.med.lin [2]: 1.495; enrich.exp.med.log2 [2]: 0.5798; enrich.exp.med [3]: 0.4567; enrich.exp.med [4]: 1.006; enrich.exp.med [5]: 0.3365; enrich.exp.med [6]: -0.009915; enrich.exp.med ([7]; Probe, protein PRDX4 Q13162): -1.846; enrich.exp.med.lin ([7]; protein PRDX4 (Q13162)): 0.2781; enrich.exp.med.log2 ([7]; protein PRDX4 (Q13162)): -1.846; enrich.exp.med ([8]; exp_ref Probe, analysis C6): 0.4939; enrich.exp.med.lin [8]: 1.408; enrich.exp.med.log2 [8]: 0.4939; enrich.exp.med [9]: 0.2232; enrich.exp.med [10]: -0.2955; enrich.exp.med [11]: 1.2493; enrich.exp.med [12]: -1.066; enrich.exp.med [13]: 0.1244; enrich.exp.med ([14]; Probe, protein TKT P29401): -0.5472; enrich.exp.med.lin ([14]; protein TKT (P29401)): 0.6843; enrich.exp.med.log2 ([14]; protein TKT (P29401)): -0.5472
